According to ChEMBL document CHEMBL1201862, “PubChem BioAssay data set” (2004):
The source made the active and inactive calls.

Legend:
[1] = A2780 ovarian cancer cell cytotoxicity, dose response, cytotoxicity control, plate reader, dry powder samples (AID 743046); type: functional, cell-based
[2] = IOSE-T80 ovarian epithelial cell cytotoxicity, dose response, cytotoxicity control for PAX8 inhibitor project, plate reader, dry powder samples (AID 743045); type: functional, cell-based
[3] = NIH:OVCAR-3 ovarian cancer cell cytotoxicity, dose response, PAX8 inhibitor project, plate reader, dry powder samples (AID 743044); type: functional, cell-based
[4] = non-specific cell cytotoxicity, dose response, cytotoxicity control for PAX8 inhibitor project, plate reader, dry powder samples (AID 743021); type: functional, cell-based
[5] = cytotoxicity in OVCAR8 ovarian cancer cells, dose response, PAX8 project, cell-based, plate reader, dry powder samples (AID 743197); type: functional; settings: OVCAR-8
Paired box protein Pax-8 = Paired box protein Pax-8 (Homo sapiens, UniProt Q06710); experiment: inhibitors of PAX8-driven TPO luciferase reporter, dose response, RMG-I cells, cherry-pick (AID 687027); type: functional, cell-based;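 further: luciferase reporter driven by Pax8 target thyroperoxidase promoter measured by SteadyGlo luminescence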
[6] = cytotoxicity in COV434 cells, dose response, cytotoxicity control for PAX8 inhibitor project, cell-based, plate reader, dry powder, SA7 (AID 743145); type: functional
[7] = PAX2 cell-based inhibition, dose response, selectivity assay for PAX8 inhibitor project, plate reader, dry powder samples (AID 743048); type: functional;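 further: HEK293 cells carrying a WT1 promoter luciferase reporter driven by expressed Pax2; potency is for inhibition of Pax2 driven reporter signal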
[8] = cytotoxicity dependent on PAX8, dose response, cell-based, plate reader, dry powder (AID 743049); type: functional
[9] = cytotoxicity in COV362 ovarian cancer cells, dose response, cytotoxicity control for PAX8 inhibitor project, cell-based, plate reader, dry powder, SA12 (AID 743144); type: functional
[10] = cytotoxicity in OV-90 ovarian cancer cells, dose response, PAX8 inhibitor project, cell-based, plate reader, dry powder, SA8 (AID 743149); type: functional
[11] = PAX5 activity inhibitors, dose response, selectivity assay for PAX8 inhibitor project, cell-based, plate reader, dry powder samples (AID 743047); type: functional;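 further: HEK293 cells carrying a Pax5 driven CD19 promoter luciferase reporter; potency of inhibitors that lower reporter luminescence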
[12] = Late stage counterscreen for inhibitors of Trypanosoma brucei methionyl tRNA synthetase (MetRS): Luminescence-based cell-based high throughput dose response assay to identify compounds that are cytotoxic to Jurkat human T lymphocyte cells.; type: functional
[13] = HepG2 cell cytotoxicity, dose response, cytotoxicity control, luminescence plate reader, powder samples, set 2 (AID 651860); type: functional, cell-based
[14] = MITF: Counter assay: A375 proliferation Measured in Cell-Based System Using Plate Reader - 2084-03_Inhibitor_Dose_DryPowder_Activity_Set8.; type: functional; settings: A-375
[15] = MALME3 melanoma cell viability reduction, dose response, orthogonal assay for MITF inhibitor project, CellTiter-Glo luminescence, dry powder, set 5 (AID 651584); type: functional, cell-based; settings: MALME-3
[16] = MITF Orthogonal Assay: MALME3 CTG Assay Measured in Cell-Based System Using Plate Reader - 2084-04_Inhibitor_Dose_DryPowder_Activity_Set6.; type: functional; settings: MALME-3
[17] = TRPM1 promoter luciferase reporter signal decrease, dose response, MITF inhibitor project, cell-based, SK-MEL-5, dry powder, set 9 (AID 651588); type: functional
[18] = MITF Orthogonal Assay: SK-MEL-5 CTG Assay Measured in Cell-Based System Using Plate Reader - 2084-02_Inhibitor_Dose_DryPowder_Activity_Set7.; type: functional
[19] = TRPM1 promoter luciferase reporter signal decrease, dose response, MITF inhibitor project, cell-based, SK-MEL-5, dry powder, set 8 (AID 624430); type: functional
[20] = A375 melanoma cell viability loss, dose response, counter-screen for MITF modulator project, CellTiter-Glo luminescence, dry powder, set 9 (AID 651591); type: functional, cell-based; settings: A-375
[21] = SK-MEL-5 parental cell viability reduction, dose response, orthogonal assay for MITF inhibitor project, CellTiter-Glo luminescence, dry powder, set 8 (AID 651586); type: functional, cell-based
[22] = growth inhibition of replicating M. tuberculosis, dose response, counter-screen, dry powder, IC90 (AID 651617); type: functional; settings: Mycobacterium tuberculosis
[23] = inhibitors of non-replicating M. tuberculosis, dose response, luciferase, dry powder (AID 651619); type: functional; settings: Mycobacterium tuberculosis
[24] = inhibitors of non-replicating M. tuberculosis, dose response, luciferase, dry powder (AID 651620); type: functional; settings: Mycobacterium tuberculosis
[25] = Dose-response inhibition of insulin secretion in a rat insulinoma line at 5 mM glucose (AID 1117331); type: functional, cell-based; settings: INS-1E
cells = type: functional, cell-based; settings: INS-1E
[26] = SNU-C1 cell viability reduction, dose response, CellTiter-Glo luminescence (AID 1117323); type: functional, cell-based
[27] = cytotoxicity toward HCT116 cells – cell-based, CellTiter-Glo luminescence, IC50, dose response (AID 1117332); type: functional; settings: HCT-116
[28] = cytotoxicity toward HT-29 cells – cell-based, CellTiter-Glo luminescence, IC50, dose response (AID 1117330); type: functional
[29] = CellTiter-Glo luminescent dose response of DLD-1 viability loss (AID 1117352); type: functional
[30] = cytotoxicity toward Colo320 cells – cell-based, CellTiter-Glo luminescence, IC50, dose response (AID 1117334); type: functional; settings: COLO 320
[31] = RKO cell viability reduction, dose response, CellTiter-Glo luminescence (AID 1117322); type: functional
[32] = Concentration-dependent survival of SW480 colon cancer line, luminescence detection with CellTiter-Glo, half-maximal inhibitory concentration (AID 1117338); type: functional
[33] = HCT116 cell viability decrease, GSK3B pretreatment – CellTiter-Glo, IC50, dose response (AID 1117339); type: functional; settings: HCT-116

Sequence of Paired box protein Pax-8 (Q06710 whole entry): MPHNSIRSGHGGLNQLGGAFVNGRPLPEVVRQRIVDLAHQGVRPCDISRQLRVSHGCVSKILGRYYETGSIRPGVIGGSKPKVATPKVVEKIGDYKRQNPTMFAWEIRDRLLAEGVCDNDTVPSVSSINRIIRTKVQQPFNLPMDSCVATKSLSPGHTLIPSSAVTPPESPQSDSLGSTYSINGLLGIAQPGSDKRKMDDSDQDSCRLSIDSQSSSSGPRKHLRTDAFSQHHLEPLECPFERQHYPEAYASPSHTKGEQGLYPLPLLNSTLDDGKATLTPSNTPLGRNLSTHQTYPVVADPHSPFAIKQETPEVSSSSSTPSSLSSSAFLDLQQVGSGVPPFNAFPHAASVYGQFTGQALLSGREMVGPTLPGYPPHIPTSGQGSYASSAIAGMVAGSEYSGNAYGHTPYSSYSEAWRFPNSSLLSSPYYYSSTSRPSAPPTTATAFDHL

Which AC50 [1] does the source give for COc1ccc(NC(=O)N2CCCCN3[C@@H](CO)[C@@H](c4ccc(C#Cc5ccccc5)cc4)[C@@H]3C2)cc1 here?
The AC50 was 22.2 µM (active).

And the AC50 [2]?
Its AC50 is 37.1 µM (active).

And the AC50 [3]?
Its AC50 is 23.3 µM (active).

What about the AC50 [4] of the same compound?
Its AC50 is 42.1 µM (active).

And the AC50 [5]?
Its AC50 is 40.1 µM (active).

And the AC50 (Paired box protein Pax-8)?
Its AC50 is 14.9 µM (active).

With O=C(N1CCCCC1)[C@@]1(CCS(=O)(=O)c2ccccc2)N=C(c2ccc(OCCCO)cc2)O[C@H]1c1ccccc1 as the compound, how does the AC50 [1] read?
The AC50 was 32.1 µM (active).

What about the AC50 [6] of the same compound?
Its AC50 is > 100 µM (inactive).

What about the AC50 [3] of the same compound?
The AC50 was 64.6 µM (active).

What about the AC50 [7] of the same compound?
Its AC50 is 49.5 µM (active).

What about the AC50 [8] of the same compound?
Its AC50 is 87.1 µM (active).

And the AC50 [9]?
Its AC50 is > 100 µM (inactive).

And the AC50 [10]?
Its AC50 is > 100 µM (inactive).

And the AC50 [11]?
The AC50 was 41.9 µM (active).

With O=C(NCc1nc2ccccc2[nH]1)C1=C[C@H](c2csc3ccccc23)C[C@H](OCCCCO)O1 as the compound, how does the IC50 [12] read?
The IC50 was 60.3 µM (inactive).

For Cc1cc(C)c(S(=O)(=O)Nc2nc(C(C(=O)OC(C)C)C(=O)C(F)(F)F)nc3ccccc23)c(C)c1 (configuration not stated), which AC50 [13] is on record?
Its AC50 is > 52 µM (inactive).

With CCN1CCN(C2=C(Nc3ccc(F)cc3F)C(=O)c3ccccc3C2=O)CC1 as the compound, how does the AC50 [14] read?
The AC50 was > 70 µM (inactive).

What about the AC50 [15] of the same compound?
Its AC50 is 26.3 µM (active).

And the AC50 [16]?
Its AC50 is 26.3 µM (active).

What about the AC50 [17] of the same compound?
The AC50 was 12.3 µM (active).

What about the AC50 [18] of the same compound?
The AC50 was 8.99 µM (active).

What about the AC50 [19] of the same compound?
Its AC50 is 2.41 µM (active).

What about the AC50 [20] of the same compound?
Its AC50 is > 70 µM (inactive).

What about the AC50 [21] of the same compound?
The AC50 was > 70 µM (inactive).

Which results are given for [N-]=[N+]=NCCOCCNC(=O)CCCOc1ccc(CSc2nnc(-c3ccc(Cl)cc3)o2)nc1?
IC90 [22]: 62 µM (active); IC90 [23]: 8 µM (active); IC90 [24]: 8 µM (active)

Which IC50 [25] does the source give for Oc1ccccc1 [PHENOL] here?
The IC50 was > 33.3 µM (inactive).

What about the IC50 (cells) of the same compound?
The IC50 was > 33.3 µM (inactive).

Which results are given for Cc1nnc(NS(=O)(=O)c2ccc(N)cc2)s1 [SULFAMETHIZOLE]?
IC50 [26]: > 20 µM (inactive); IC50 [27]: > 20 µM (inactive); IC50 [28]: > 20 µM (inactive); IC50 [29]: > 20 µM (inactive); IC50 [30]: > 20 µM (inactive); IC50 [31]: > 20 µM (inactive); IC50 [32]: > 20 µM (inactive); IC50 [33]: > 20 µM (inactive)
